Measurements published in patent US12116358B2, “Substituted indoles and methods of use thereof” (EPIZYME, INC., priority 2018, dated 2024).
Where two headings read alike, the source gives them in different places.

How the values were obtained:
SETD2(1434-1711) = target: T1, SETD2(1434-1711) (Homo sapiens, UniProt Q9BYW2); experiment: SETD2 (1434-1711) assay; format: biochemical; settings: read-out: SETD2 (1434-1711)
T1 construct: SETD2 (1434-1711) Assay; catalogue N/A
T1 sequence (Q9BYW2 1434-1711): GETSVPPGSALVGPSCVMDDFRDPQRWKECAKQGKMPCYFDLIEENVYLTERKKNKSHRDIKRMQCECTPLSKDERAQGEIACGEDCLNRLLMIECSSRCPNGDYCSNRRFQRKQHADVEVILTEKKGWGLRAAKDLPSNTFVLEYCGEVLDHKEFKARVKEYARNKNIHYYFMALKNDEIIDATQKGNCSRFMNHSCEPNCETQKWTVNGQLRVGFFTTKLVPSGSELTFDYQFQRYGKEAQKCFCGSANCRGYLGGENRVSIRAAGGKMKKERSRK

H3K36me3 in A549 cells = experiment: In-Cell Western (ICW) assay of SETD2 inhibitors (A549 assay); format: cell-based, human; settings: A549 cells, read-out: SETD2 A549
Summary of the method: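 H3K36me3 In-Cell Western: cells exposed to compound for 3 days at 4,000 cells/well, 37° C. DRAQ5 (1:1000) marked cell number, with 700/800-channel Licor read-out.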

| SMILES | IC50 (SETD2(1434-1711)) [µM] | IC50 (H3K36me3 in A549 cells) [µM] | IC50 (H3K36me3 in A549 cells; Homo sapiens) [µM] |
| --- | --- | --- | --- |
| Cc1ccc(F)c2cc(C(=O)NC3CCCC(N4CCC5(CCC(=O)N5CC(F)(F)F)CC4)C3)[nH]c12 (centres unmarked) [compound 966] | 0.6 | > 2 |  |
| Cc1cccnc1C(CCC(=O)NC1CCC(N)CC1)NC(=O)c1cc2cccc(C)c2[nH]1 (centres unmarked) [compound 579] | 23 | > 25 |  |
| Cc1cncnc1C(NC(=O)c1cc2cccc(C)c2[nH]1)C1CC1 (centres unmarked) [compound 493] | > 50 |  | 13.1 |
| Cc1ccc(F)c2cc(C(=O)NC3CCCC(N4CCC5(CC4)COC(=O)N5)C3)[nH]c12 (centres unmarked) [compound 963] | 0.02 | 0.6 |  |
| Cc1ccc(F)c2cc(C(=O)Nc3cccc([C@H]4CC[C@H](N(C)C)C4)c3)[nH]c12 [compound 264] | 0.02 |  | 0.7 |
| Cc1ccc(F)c2cc(C(=O)Nc3cccc(-c4cc5ccccn5n4)c3)[nH]c12 [compound 354] | 0.3 | > 2 |  |
| Cc1ccc(F)c2cc(C(=O)NC3CCCC(N4CCC(N(C)C(=O)CO)C4)C3)[nH]c12 (centres unmarked) [compound 983] | 0.02 | 0.1 |  |
| Cc1ccc(F)c2cc(C(=O)N[C@@H]3CCC[C@H](N4CCN(C(=O)CO)CC4)C3)[nH]c12 [compound 870] | 0.01 |  | 0.04 |
| Cc1cccnc1C(CCC(=O)N1CCn2cncc2C1)NC(=O)c1cc2cccc(C)c2[nH]1 (centres unmarked) [compound 460] | 4.5 |  | 6.2 |
| Cc1ccc(F)c2cc(C(=O)Nc3cccc(N4CCN(C)C(C(F)(F)F)C4)c3)[nH]c12 (centres unmarked) [compound 229] | 0.1 | 0.5 |  |
| Cc1ccc(F)c2cc(C(=O)N[C@@H]3CCC[C@H](N4CCN(C(=O)NC5CCOCC5)CC4)C3)[nH]c12 [compound 1037] | 0.03 |  | 0.3 |
| Cc1ccc(F)c2cc(C(=O)NC3C(=O)NCCc4ccccc43)[nH]c12 (centres unmarked) [compound 327] | 0.5 | 1.6 |  |
| CC(=O)N1CCN([C@H]2CCC[C@@H](NC(=O)c3cc4c(F)ccc(C)c4[nH]3)C2)[C@H](C)C1 [compound 1092] | 0.8 |  | 0.8 |
| Cc1ccc(F)c2cc(C(=O)Nc3cc(N4CCN(C)CC4)n4ccnc4c3)[nH]c12 [compound 355] | 0.5 |  | > 2 |
| CCC1CN(C2CCCC(NC(=O)c3cc4c(F)ccc(C)c4[nH]3)C2)CCN1C(C)=O (centres unmarked) [compound 1055] | 0.009 | 0.005 |  |
| COC1(C)CCN(c2cccc(NC(=O)c3cc4c(F)ccc(C)c4[nH]3)c2)CC1 [compound 262] | 0.2 |  | 0.7 |
| CC(=O)N(C(C)C)C1CCN(C2CCC[C@@H](NC(=O)c3cc4c(F)ccc(C)c4[nH]3)C2)C1 (some centres unmarked) [compound 862] | 0.4 | > 2 |  |
| Cc1ccc(F)c2cc(C(=O)NC3CCCC(N4CCC(N(CCO)S(C)(=O)=O)C4)C3)[nH]c12 (centres unmarked) [compound 1151] | 5.8 | > 2 |  |
| COCCN1CCC2(CC1)CN(c1cccc(NC(=O)c3cc4c(F)ccc(C)c4[nH]3)c1)C2 [compound 109] | 0.01 | 0.2 |  |
| Cc1ccc(F)c2cc(C(=O)NC3C(=O)NCc4ccccc43)[nH]c12 (centres unmarked) [compound 458] | 2.2 |  | 6.2 |
| COCC(=O)N(C)[C@H]1CCN([C@H]2CCC[C@@H](NC(=O)c3cc4c(F)ccc(C)c4[nH]3)C2)C1 [compound 1043] | 0.008 |  | 0.04 |
| Cc1ccc(F)c2cc(C(=O)Nc3cccc(-c4cn5ccccc5n4)c3)[nH]c12 [compound 286] | 0.1 |  | 1 |
| Cc1ccc(F)c2cc(C(=O)Nc3cccc(N4CCOCC4C)c3)[nH]c12 (centres unmarked) [compound 216] | 0.1 | 0.5 |  |

| SMILES | IC50 (SETD2(1434-1711)) [µM] | IC50 (H3K36me3 in A549 cells) [µM] | IC50 (H3K36me3 in A549 cells; Homo sapiens) [µM] |
| --- | --- | --- | --- |
| Cc1cccc2cc(C(=O)Nc3cccc(N4CCN(S(=O)(=O)C5CCC(N)CC5)CC4)c3)[nH]c12 (centres unmarked) [compound 429] | 0.1 |  | 4.3 |
| Cc1cc(C(=O)N[C@H]2CC[C@H](N)CC2)cnc1C(NC(=O)c1cc2cccc(C)c2[nH]1)C1CC1 (some centres unmarked) [compound 496] | 0.4 | 13.4 |  |
| Cc1cccc2cc(C(=O)Nc3cnc4nccn4c3)[nH]c12 [compound 484] | 7.6 | 10.6 |  |
| Cc1ccc(F)c2cc(C(=O)NCC3(c4ccccc4N4CCN(C)CC4)CC3)[nH]c12 [Cpd. No. 392, 4-fluoro-7-methyl-N-((1-(2-(4-methylpiperazin-1-yl)phenyl)cyclopropyl)methyl)-1H-indole-2-carboxamide] | 0.06 |  | 2 |
| COc1ccnc(C(NC(=O)c2cc3c(F)ccc(C)c3[nH]2)C2CC2)c1C (centres unmarked) [compound 269] | 0.1 |  | 0.7 |
| COCC(=O)N1CCN(c2cc(F)cc(NC(=O)c3cc4c(F)ccc(C)c4[nH]3)c2)CC1 [compound 12] | 0.01 | 0.05 |  |
| Cc1ccc(F)c2cc(C(=O)Nc3cccc(S(N)(=O)=O)c3)[nH]c12 [compound 454] | 2.8 |  | 5.9 |
| Cc1ccc(F)c2cc(C(=O)Nc3cccc4ncccc34)[nH]c12 [compound 238] | 0.2 | 0.6 |  |
| CC(=O)N1CCN(c2ccc(F)c(NC(=O)c3cc4c(F)ccc(C)c4[nH]3)c2)CC1 [compound 185] | 0.1 |  | 0.4 |
| Cc1ccc(F)c2cc(C(=O)NC3CCCc4cccnc43)[nH]c12 (centres unmarked) [compound 498] | 9.4 | 13.8 |  |
| COC(=O)N1CCC2(CC1)CCN(c1cccc(NC(=O)c3cc4c(F)ccc(C)c4[nH]3)c1)C2 [compound 83] | 0.02 | 0.2 |  |
| Cc1ccc(F)c2cc(C(=O)Nc3cccc(N4CC5(CCNCC5)C4)c3)[nH]c12 [compound 184] | 0.01 |  | 0.4 |
| Cc1ccc(F)c2cc(C(=O)Nc3cccc(N4CCNC(=O)CC4)c3)[nH]c12 [compound 200] | 0.05 | 0.4 |  |
| COCC(=O)N1CCN([C@H]2CCC[C@@H](NC(=O)c3cc4c(F)ccc(C)c4[nH]3)C2)CC1 [compound 846] | 0.02 | 0.1 |  |
| Cc1ccc(F)c2cc(C(=O)Nc3cccc(N4CCN(C5CC5)C(=O)C4)c3)[nH]c12 [compound 100] | 0.03 | 0.2 |  |
| Cc1ccc(F)c2cc(C(=O)Nc3cccc(-c4c[nH]cn4)c3)[nH]c12 [compound 337] | 0.4 | 1.6 |  |
| CCC(=O)N1CCN(C2CCCC(NC(=O)c3cc4c(F)ccc(C)c4[nH]3)C2)CC1C(F)(F)F (centres unmarked) [compound 1168] | 1.3 | > 2 |  |
| C/C(=N\C#N)N1CCN([C@H]2CCC[C@@H](NC(=O)c3cc4c(F)ccc(C)c4[nH]3)C2)CC1 [compound 1116] | 0.02 |  | 0.05 |
| Cc1ccc(F)c2cc(C(=O)N[C@@H]3CCC[C@H](N4CCn5c(nn(C)c5=O)C4)C3)[nH]c12 [compound 1056] | 0.09 |  | 0.3 |
| Cc1ccc(F)c2cc(C(=O)Nc3cccc(C(C)(C)O)c3)[nH]c12 [compound 315] | 0.6 |  | 1.4 |
| Cc1ccc(F)c2cc(C(=O)Nc3cc(CF)cc(N4CCC(N(C)C)CC4)c3)[nH]c12 [compound 274] | 0.04 |  | 0.8 |
| CC(=O)N1CC2CC1CN2[C@H]1CCC[C@@H](NC(=O)c2cc3c(F)ccc(C)c3[nH]2)C1 (some centres unmarked) [compound 936] | 0.1 |  | 0.5 |
| Cc1ccc(F)c2cc(C(=O)Nc3cc(Cl)cc(CN4CCOCC4)c3)[nH]c12 [compound 333] | 0.3 | 1.6 |  |
